Where two headings read alike, the source gives them in different places.
Legend:
Type in all cases: cell-based
[1] = molecular target: hERG K+ channel (Homo sapiens, UniProt Q12809); assay: hERG K+ Channel Block
[2] = molecular target: T1, human α1H T-type channels (Homo sapiens, UniProt O95180); assay: T-type calcium channel block, whole cell patch clamp in HEK cells (α1H); details: HEK cells, patch clamp, mainly non-inactivated protocol; values above 10 μM shown as 10 μM; read-out: T-type Calcium Channel Block α1H IC50
T1 construct: expressed in transfected cells; host or cells: HEK 293

[3] = molecular target: T2, human α1G T-type channels (Homo sapiens, UniProt O43497); assay: T-type calcium channel block, whole cell patch clamp in HEK cells (α1G); details: HEK cells, patch clamp, mainly non-inactivated protocol; values above 10 μM shown as 10 μM, below 0.30 μM shown as 0.30 μM; read-out: T-type Calcium Channel Block α1G IC50
T2 construct: expressed in transfected cells; host or cells: HEK 293
T2 sequence (O43497 whole entry): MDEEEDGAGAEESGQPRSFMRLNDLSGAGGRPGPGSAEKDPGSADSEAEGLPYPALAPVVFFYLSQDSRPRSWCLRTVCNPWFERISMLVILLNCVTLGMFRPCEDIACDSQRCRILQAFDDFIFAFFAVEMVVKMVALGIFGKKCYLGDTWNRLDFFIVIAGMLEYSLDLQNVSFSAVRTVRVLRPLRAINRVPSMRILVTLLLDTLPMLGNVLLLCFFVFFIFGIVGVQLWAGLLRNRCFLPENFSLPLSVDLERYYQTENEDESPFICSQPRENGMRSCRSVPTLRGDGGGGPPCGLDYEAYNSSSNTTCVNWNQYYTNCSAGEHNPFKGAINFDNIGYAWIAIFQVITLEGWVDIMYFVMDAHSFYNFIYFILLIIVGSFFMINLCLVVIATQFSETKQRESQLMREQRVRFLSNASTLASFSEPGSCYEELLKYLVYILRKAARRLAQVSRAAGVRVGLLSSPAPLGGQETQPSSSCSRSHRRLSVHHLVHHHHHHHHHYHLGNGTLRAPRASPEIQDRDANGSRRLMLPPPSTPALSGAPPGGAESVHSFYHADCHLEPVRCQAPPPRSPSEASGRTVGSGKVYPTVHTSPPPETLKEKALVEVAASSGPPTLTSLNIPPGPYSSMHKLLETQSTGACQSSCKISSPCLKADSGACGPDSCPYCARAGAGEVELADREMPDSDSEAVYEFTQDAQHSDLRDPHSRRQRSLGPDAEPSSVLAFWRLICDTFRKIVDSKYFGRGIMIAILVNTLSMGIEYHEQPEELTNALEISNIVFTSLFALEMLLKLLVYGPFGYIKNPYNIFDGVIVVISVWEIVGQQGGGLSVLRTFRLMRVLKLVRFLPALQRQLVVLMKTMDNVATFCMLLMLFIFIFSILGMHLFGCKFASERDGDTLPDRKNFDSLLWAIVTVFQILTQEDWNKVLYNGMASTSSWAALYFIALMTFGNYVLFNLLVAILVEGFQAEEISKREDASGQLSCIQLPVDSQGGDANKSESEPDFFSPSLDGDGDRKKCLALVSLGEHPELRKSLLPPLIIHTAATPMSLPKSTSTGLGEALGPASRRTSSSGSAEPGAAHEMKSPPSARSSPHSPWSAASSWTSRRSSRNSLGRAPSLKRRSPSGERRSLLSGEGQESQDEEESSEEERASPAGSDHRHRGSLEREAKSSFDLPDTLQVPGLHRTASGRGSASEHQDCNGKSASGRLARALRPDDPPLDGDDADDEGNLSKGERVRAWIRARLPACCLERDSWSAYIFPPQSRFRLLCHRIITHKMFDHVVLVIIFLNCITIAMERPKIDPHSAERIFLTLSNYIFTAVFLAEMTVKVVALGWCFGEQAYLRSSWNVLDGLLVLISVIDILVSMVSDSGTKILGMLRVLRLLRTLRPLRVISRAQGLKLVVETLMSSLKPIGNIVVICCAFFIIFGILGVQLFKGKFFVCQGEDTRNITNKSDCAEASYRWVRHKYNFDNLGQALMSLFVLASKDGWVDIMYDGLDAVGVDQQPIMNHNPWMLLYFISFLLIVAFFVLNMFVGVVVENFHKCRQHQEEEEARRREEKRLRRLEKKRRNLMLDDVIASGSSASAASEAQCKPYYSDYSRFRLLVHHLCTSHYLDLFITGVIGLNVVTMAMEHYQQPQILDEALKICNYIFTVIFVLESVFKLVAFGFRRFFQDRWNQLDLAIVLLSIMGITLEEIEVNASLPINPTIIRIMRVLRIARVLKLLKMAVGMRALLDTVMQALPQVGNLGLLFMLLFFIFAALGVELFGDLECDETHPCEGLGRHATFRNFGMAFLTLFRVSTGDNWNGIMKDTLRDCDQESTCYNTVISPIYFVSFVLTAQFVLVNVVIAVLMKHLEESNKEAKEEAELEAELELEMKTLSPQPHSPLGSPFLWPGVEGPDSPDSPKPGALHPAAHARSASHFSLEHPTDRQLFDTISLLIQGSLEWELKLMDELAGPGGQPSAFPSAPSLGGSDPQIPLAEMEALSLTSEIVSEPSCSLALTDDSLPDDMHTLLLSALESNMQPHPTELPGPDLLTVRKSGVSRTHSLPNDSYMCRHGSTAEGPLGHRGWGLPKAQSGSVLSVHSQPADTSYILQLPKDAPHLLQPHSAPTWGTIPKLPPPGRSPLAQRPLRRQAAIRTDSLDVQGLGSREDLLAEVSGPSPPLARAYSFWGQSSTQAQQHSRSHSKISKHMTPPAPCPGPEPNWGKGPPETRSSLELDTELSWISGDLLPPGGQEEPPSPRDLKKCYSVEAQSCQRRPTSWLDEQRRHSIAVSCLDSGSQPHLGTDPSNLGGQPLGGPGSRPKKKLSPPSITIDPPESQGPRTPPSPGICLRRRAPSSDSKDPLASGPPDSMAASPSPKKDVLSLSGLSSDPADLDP

hERG K+ channel, sequence (Q12809 whole entry): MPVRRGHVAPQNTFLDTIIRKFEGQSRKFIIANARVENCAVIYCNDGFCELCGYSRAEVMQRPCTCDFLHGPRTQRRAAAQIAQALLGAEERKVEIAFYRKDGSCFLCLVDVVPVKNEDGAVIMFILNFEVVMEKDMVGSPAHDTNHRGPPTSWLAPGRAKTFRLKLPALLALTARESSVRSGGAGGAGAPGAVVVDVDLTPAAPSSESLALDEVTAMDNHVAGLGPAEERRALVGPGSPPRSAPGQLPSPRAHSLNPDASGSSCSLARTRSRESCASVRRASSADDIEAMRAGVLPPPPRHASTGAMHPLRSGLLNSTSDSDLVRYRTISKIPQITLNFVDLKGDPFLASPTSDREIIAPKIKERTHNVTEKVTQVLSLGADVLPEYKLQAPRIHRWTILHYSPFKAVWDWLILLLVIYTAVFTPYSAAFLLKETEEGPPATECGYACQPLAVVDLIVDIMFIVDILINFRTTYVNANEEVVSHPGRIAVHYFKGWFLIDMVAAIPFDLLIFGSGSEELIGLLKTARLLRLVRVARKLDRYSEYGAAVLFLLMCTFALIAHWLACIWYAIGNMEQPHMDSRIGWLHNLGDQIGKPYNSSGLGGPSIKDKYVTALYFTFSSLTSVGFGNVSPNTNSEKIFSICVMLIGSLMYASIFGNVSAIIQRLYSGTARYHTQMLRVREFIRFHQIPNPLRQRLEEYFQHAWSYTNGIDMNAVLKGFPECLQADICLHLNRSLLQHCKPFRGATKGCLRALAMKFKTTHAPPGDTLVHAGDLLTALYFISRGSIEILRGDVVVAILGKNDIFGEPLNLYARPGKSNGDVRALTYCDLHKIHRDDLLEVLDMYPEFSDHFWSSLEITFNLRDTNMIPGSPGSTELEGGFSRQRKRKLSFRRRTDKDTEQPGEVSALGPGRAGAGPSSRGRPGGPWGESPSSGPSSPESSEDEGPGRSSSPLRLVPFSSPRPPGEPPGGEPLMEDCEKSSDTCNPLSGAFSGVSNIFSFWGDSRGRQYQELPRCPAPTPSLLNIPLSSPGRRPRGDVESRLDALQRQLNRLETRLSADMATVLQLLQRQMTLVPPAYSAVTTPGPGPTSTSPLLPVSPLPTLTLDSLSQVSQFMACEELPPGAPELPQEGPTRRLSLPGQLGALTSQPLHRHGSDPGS

IC50 [2] [nM] | IC50 [3] [nM] | Compound | IC50 [1] [nM] | IC50 ([1]; human) [nM]
90 | < 300 | CC(C)(C(=O)NCCN1CCC(CNC(=O)c2cc(F)cc(Cl)c2)CC1)C(F)(F)F [Compound 495, 3-chloro-5-fluoro-N-((1-(2-(3,3,3-trifluoro-2,2-dimethylpropanamido)ethyl)piperidin-4-yl)methyl)benzamide] | 4100 | –
140 | < 300 | COc1cc(F)cc(C(=O)NCC2CCN(CCNC(=O)C3(C(F)(F)F)CC3)CC2)c1 [Compound 499, 3-fluoro-5-methoxy-N-((1-(2-(1-(trifluoromethyl)cyclopropanecarbox-amido)ethyl)piperidin-4-yl)methyl) benzamide] | 11100 | –
180 | < 300 | COc1cc(OC)cc(C(=O)NCC2CCN(CCNC(=O)C3(C(F)(F)F)CC3)CC2)c1 [Compound 500, 3,5-dimethoxy-N-((1-(2-(1-(trifluoromethyl)cyclopropanecarbox-amido)ethyl)piperidin-4-yl)methyl) benzamide] | 5500 | –
120 | < 300 | O=C(NCC1CCN(CCNC(=O)C2(C(F)(F)F)CC2)CC1)c1cccc(Br)c1 [Compound 501, 3-bromo-N-((1-(2-(1-(trifluoromethyl)cyclopropanecarbox-amido)ethyl)piperidin-4-yl)methyl) benzamide] | 5600 | –
90 | < 300 | O=C(NCC1CCN(CCNC(=O)C2(C(F)(F)F)CCC2)CC1)c1cc(F)cc(Cl)c1 [Compound 511, 3-chloro-5-fluoro-N-((1-(2-(1-(trifluoromethyl)cyclobutanecarboxamido)ethyl)piperidin-4-yl)methyl)benzamide] | 2900 | –
90 | < 300 | COc1cc(F)cc(C(=O)NCC2CCN(CCNC(=O)C3(C(F)(F)F)CCC3)CC2)c1 [Compound 513, 3-fluoro-5-methoxy-N-((1-(2-(1-(trifluoromethyl)cyclobutanecarboxamido)ethyl)piperidin-4-yl)methyl)benzamide] | – | ≥ 16600
80 | < 300 | O=C(CN1CCC(CNC(=O)c2cc(F)cc(Cl)c2)CC1)NC1CCCC1 [Compound 531, 3-chloro-N-((1-(2-(cyclopentylamino)-2-oxoethyl)piperidin-4-yl)methyl)-5-fluorobenzamide] | 2400 | –
360 | 2470 | CC(C)(C)[S+]([O-])NCCN1CCC(CNC(=O)c2cc(F)cc(C(F)(F)F)c2)CC1 (stereo not drawn) [Compound 537, N-((1-(2-(1,1-dimethylethylsulfinamido)ethyl)piperidin-4-yl)methyl)-3-fluoro-5-(trifluoromethyl)benzamide] | – | ≥ 17000
60 | < 300 | COCC(C)(C)NC(=O)CN1CCC(CNC(=O)c2cc(F)cc(Cl)c2)CC1 [Compound 538, 3-chloro-5-fluoro-N-((1-(2-(1-methoxy-2-methylpropan-2-ylamino)-2-oxoethyl)piperidin-4-yl)methyl)benzamide] | 13000 | –
410 | 310 | COc1cc(F)cc(C(=O)NCC2CCN(CC(=O)N(C)C(C)(C)C)CC2)c1 [Compound 541, N-((1-(2-(tert-butyl(methyl)amino)-2-oxoethyl)piperidin-4-yl)methyl)-3-fluoro-5-methoxybenzamide] | – | ≥ 17000
450 | 980 | CN(C(=O)CN1CCC(CNC(=O)c2cccc(C(F)(F)F)c2)CC1)C(C)(C)C [Compound 542, N-((1-(2-(tert-butyl(methyl)amino)-2-oxoethyl)piperidin-4-yl)methyl)-3-(trifluoromethyl)benzamide] | 6400 | –
410 | 580 | CN(C(=O)CN1CCC(CNC(=O)c2cccc(Cl)c2)CC1)C(C)(C)C [Compound 543, N-((1-(2-(tert-butyl(methyl)amino)-2-oxoethyl)piperidin-4-yl)methyl)-3-chlorobenzamide] | 5200 | –
170 | < 300 | CN(C(=O)CN1CCC(CNC(=O)c2cc(F)cc(Cl)c2)CC1)C(C)(C)C [Compound 544, N-((1-(2-(tert-butyl(methyl)amino)-2-oxoethyl)piperidin-4-yl)methyl)-3-chloro-5-fluorobenzamide] | 6000 | –
210 | 470 | CN(C(=O)CN1CCC(CNC(=O)c2cccc(OC(F)(F)F)c2)CC1)C(C)(C)C [Compound 545, N-((1-(2-(tert-butyl(methyl)amino)-2-oxoethyl)piperidin-4-yl)methyl)-3-(trifluoromethoxy)benzamide] | 6600 | –
60 | < 300 | CN(C(=O)CN1CCC(CNC(=O)c2cc(Cl)cc(Cl)c2)CC1)C(C)(C)C [Compound 552, N-((1-(2-(tert-butyl(methyl)amino)-2-oxoethyl)piperidin-4-yl)methyl)-3,5-dichlorobenzamide] | 1800 | –
350 | < 300 | COCC(C)(C)NC(=O)CN1CCC(CNC(=O)c2cc(F)cc(OC)c2)CC1 [Compound 567, 3-fluoro-5-methoxy-N-((1-(2-(1-methoxy-2-methylpropan-2-ylamino)-2-oxoethyl)piperidin-4-yl)methyl)benzamide] | – | ≥ 17000

Further lines, the molecule ahead of its results:

Compound | IC50 [2] [nM] | IC50 [3] [nM] | IC50 [1] [nM] | IC50 ([1]; human) [nM]
O=C(NCC1CCN(CC(=O)N2CCC[C@H]2C(F)(F)F)CC1)c1cccc(Cl)c1 [Compound 469, (S)-3-chloro-N-((1-(2-oxo-2-(2-(trifluoromethyl)pyrrolidin-1-yl)ethyl)piperidin-4-yl)methyl)benzamide] | 120 | < 300 | 9500 | –
O=C(NCC1CCN(CC(=O)N2CCC[C@H]2C(F)(F)F)CC1)c1cc(F)cc(Cl)c1 [Compound 470, (S)-3-chloro-5-fluoro-N-((1-(2-oxo-2-(2-(trifluoromethyl)pyrrolidin-1-yl)ethyl)piperidin-4-yl)methyl)benzamide] | 70 | < 300 | 2600 | –
O=C(NCC1CCN(CC(=O)N2CCC[C@H]2C(F)(F)F)CC1)c1cccc(OC(F)(F)F)c1 [Compound 471, (S)-N-((1-(2-oxo-2-(2-(trifluoromethyl)pyrrolidin-1-yl)ethyl)piperidin-4-yl)methyl)-3-(trifluoromethoxy)benzamide] | 60 | < 300 | 2300 | –
O=C(NCC1CCN(CCNC(=O)C2(C(F)(F)F)CC2)CC1)c1cc(F)cc(Cl)c1 [Compound 472, 3-chloro-5-fluoro-N-((1-(2-(1-(trifluoromethyl)cyclopropanecarbox-amido)ethyl)piperidin-4-yl)methyl) benzamide] | 40 | < 300 | 2800 | –
O=C(NCC1CCN(CCNC(=O)C2(C(F)(F)F)CC2)CC1)c1cccc(C(F)(F)F)c1 [Compound 473, 3-(trifluoromethyl)-N-((1-(2-(1-(trifluoromethyl)cyclopropanecarbox-amido)ethyl)piperidin-4-yl)methyl) benzamide] | 130 | 680 | 2200 | –
Cc1cc(F)cc(C(=O)NCC2CCN(CC(=O)NC3(C)CCC3)CC2)c1 [Compound 476, 3-fluoro-5-methyl-N-((1-(2-(1-mtrhylcyclobutylamino)-2-oxoethyl)piperidin-4-yl)methyl) benzamide] | 140 | < 300 | – | ≥ 16600
COc1cc(F)cc(C(=O)NCC2CCN(CC(=O)NC3(C)CCC3)CC2)c1 [Compound 477, 3-fluoro-5-methoxy-N-((1-(2-(1-methylcyclobutylamino)-2-oxoethyl)piperidin-4-yl)methyl) benzamide] | 60 | < 300 | – | ≥ 16600
COc1cc(OC)cc(C(=O)NCC2CCN(CC(=O)NC3(C)CCC3)CC2)c1 [Compound 478, 3,5-dimethoxy-N-((1-(2-(1-methylcyclobutylamino)-2-oxoethyl)piperidin-4-yl)methyl) benzamide] | 110 | < 300 | – | ≥ 16600
CC1(NC(=O)CN2CCC(CNC(=O)c3cc(F)cc(Cl)c3)CC2)CCC1 [Compound 482, 3-chloro-5-fluoro-N-((1-(2-(1-methylcyclobutylamino)-2-oxoethyl)piperidin-4-yl)methyl) benzamide] | 80 | < 300 | 7900 | –
Cc1cc(F)cc(C(=O)NCC2CCN(CCNC(=O)C(C)(C)C(F)(F)F)CC2)c1 [Compound 489, 3-fluoro-5-methyl-N-((1-(2-(3,3,3-trifluoro-2,2-dimethylpropanamido)ethyl)piperidin-4-yl)methyl)benzamide] | 120 | 370 | 8800 | –
COc1cc(F)cc(C(=O)NCC2CCN(CCNC(=O)C(C)(C)C(F)(F)F)CC2)c1 [Compound 490, 3-fluoro-5-methoxy-N-((1-(2-(3,3,3-trifluoro-2,2-dimethylpropanamido)ethyl)piperidin-4-yl)methyl)benzamide] | 150 | < 300 | 10900 | –
CC(C)(C(=O)NCCN1CCC(CNC(=O)c2cccc(C(F)(F)F)c2)CC1)C(F)(F)F [Compound 492, N-((1-(2-(3,3,3-trifluoro-2,2-dimethylpropanamido)ethyl)piperidin-4-yl)methyl)-3-(trifluoromethyl)benzamide] | 90 | < 300 | 4700 | –
CC(C)(C(=O)NCCN1CCC(CNC(=O)c2cccc(Br)c2)CC1)C(F)(F)F [Compound 493, 3-bromo-N-((1-(2-(3,3,3-trifluoro-2,2-dimethylpropanamido)ethyl)piperidin-4-yl)methyl)benzamide] | 60 | < 300 | 2500 | –
